Read-outs that look alike come from different tables or passages of the source. Numbered stars: 1 amine (or outer) side, 2 acyl side, 3 side chain; on linkers, the order of the positions; unused ones are H or OH. Square brackets hold non-standard residues; d marks the D form. Side chains are listed from the residue outwards. Peptide text beside a SMILES is read from it. * marks the point of attachment. C16 diacid = O=C(O)CCCCCCCCCCCCCCC(=O)*; γGlu = O=C(O)[C@H](CCC(=O)[*:2])N[*:1]; Palmitoyl = CCCCCCCCCCCCCCCC(=O)*; αMeF = C[C@](N)(Cc1ccccc1)C(=O)O; αMeK = C[C@](N)(CCCCN)C(=O)O; Lauroyl = CCCCCCCCCCCC(=O)*; αMeS = C[C@](N)(CO)C(=O)O; AEEA = NCCOCCOCC(=O)O; Aib = CC(C)(N)C(=O)O
Columns and labels:
Assay type in all cases: cell-based
[1] = target: T1, human glucagon receptor (GCGR) (Homo sapiens, UniProt P47871); assay: cAMP assay, human GCGR cells
T1 construct: expressed in transfected cells
Outline: (§1)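 Peptide-stimulated cAMP measured by two-step HTRF after a 30 min room-temperature incubation with receptor-expressing cells (hGLP-1R, hGIPR at 1×10^5 cells/ml; hGCGR at 2×10^5 cells/ml). Duplicate dilutions; EC50 from 4-parameter logistic fit of % Delta F.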

[2] = target: T2, human GLP-1 receptor (GLP-1R) (Homo sapiens, UniProt P43220); assay: cAMP assay, human GLP-1R cells
T2 construct: expressed in transfected cells
Outline: as §1

[3] = target: T3, human glucose-dependent insulinotropic peptide receptor (GIPR) (Homo sapiens, UniProt P48546); assay: cAMP assay, human GIPR cells
T3 construct: expressed in transfected cells
T3 sequence (P48546 22-466): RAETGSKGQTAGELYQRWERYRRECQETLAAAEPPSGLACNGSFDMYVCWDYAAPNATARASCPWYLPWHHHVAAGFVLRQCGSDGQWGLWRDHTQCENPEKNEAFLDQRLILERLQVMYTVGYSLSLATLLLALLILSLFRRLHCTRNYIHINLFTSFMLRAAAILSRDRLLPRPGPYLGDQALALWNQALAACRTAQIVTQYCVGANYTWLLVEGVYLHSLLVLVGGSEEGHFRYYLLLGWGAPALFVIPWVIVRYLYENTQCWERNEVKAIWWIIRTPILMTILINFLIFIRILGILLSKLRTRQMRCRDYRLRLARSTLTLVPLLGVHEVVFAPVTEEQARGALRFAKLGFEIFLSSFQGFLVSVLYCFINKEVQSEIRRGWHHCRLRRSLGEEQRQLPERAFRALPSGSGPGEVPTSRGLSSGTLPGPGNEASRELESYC
Outline: as §1

[4] = tris-lipidated peptides, mean of n1 and n2, read-out: Primary assay EC50 Mean pM GLP-1R
[5] = tris-lipidated peptides, replicate n1, read-out: Primary assay EC50 GLP-1R n1
[6] = tris-lipidated peptides, replicate n2, read-out: Primary assay EC50 GLP-1R n2
[7] = cAMP assay, first determination (n1), read-out: Primary assay EC50 Gluc-R (n1)
[8] = cAMP assay, second determination (n2), read-out: Primary assay EC50 Gluc-R (n2)
[9] = cAMP assay, first determination (n1), read-out: Primary assay EC50 GLP-1R n1
[10] = cAMP assay, second determination (n2), read-out: Primary assay EC50 GLP-1R n2
[11] = mean of n1 and n2, read-out: Mean pM GLP-1R
[12] = cAMP assay, first determination (n1), read-out: Primary assay EC50 GIP-R (n1)
[13] = cAMP assay, second determination (n2), read-out: Primary assay EC50 GIP-R (n2)

T2 sequence (P43220 24-463): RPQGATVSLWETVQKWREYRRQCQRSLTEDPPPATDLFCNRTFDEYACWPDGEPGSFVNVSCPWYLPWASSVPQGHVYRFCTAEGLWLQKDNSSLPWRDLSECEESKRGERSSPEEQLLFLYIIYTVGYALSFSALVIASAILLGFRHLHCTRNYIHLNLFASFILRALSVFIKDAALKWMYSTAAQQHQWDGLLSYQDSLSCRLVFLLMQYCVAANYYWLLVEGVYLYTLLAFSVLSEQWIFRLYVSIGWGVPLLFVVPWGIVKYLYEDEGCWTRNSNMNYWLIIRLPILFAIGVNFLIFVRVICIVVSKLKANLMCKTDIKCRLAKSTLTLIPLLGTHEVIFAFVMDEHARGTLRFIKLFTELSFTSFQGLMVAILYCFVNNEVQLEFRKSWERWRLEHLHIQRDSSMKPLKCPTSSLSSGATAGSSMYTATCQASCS
T1 sequence (P47871 26-477): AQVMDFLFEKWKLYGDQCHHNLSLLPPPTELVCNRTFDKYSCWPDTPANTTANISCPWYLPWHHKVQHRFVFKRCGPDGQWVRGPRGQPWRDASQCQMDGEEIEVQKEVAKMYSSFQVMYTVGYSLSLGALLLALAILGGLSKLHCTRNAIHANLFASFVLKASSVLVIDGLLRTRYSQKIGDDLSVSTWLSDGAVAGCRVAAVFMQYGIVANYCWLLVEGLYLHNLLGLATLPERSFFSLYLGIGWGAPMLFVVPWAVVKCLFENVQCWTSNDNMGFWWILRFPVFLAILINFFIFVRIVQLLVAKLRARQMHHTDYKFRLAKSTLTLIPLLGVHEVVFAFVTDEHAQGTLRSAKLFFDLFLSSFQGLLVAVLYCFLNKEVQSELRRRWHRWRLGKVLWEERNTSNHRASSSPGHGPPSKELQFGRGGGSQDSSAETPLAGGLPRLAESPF

EC50 [2, 4]	EC50 [2, 5]	EC50 [2, 6]	EC50 [1, 7]	EC50 [1, 8]	EC50 [2, 9]	EC50 [2, 10]	EC50 [2, 11]	EC50 [3, 12]	EC50 [3, 13]	Compound	other results
–	–	–	–	–	–	–	–	–	–	CC[C@H](C)[C@H](NC(=O)[C@H](Cc1ccccc1)NC(=O)[C@H](CCC(=O)O)NC(=O)[C@](C)(CCCCN)NC(=O)[C@H](C)NC(=O)[C@H](C)NC(=O)[C@H](CCC(=O)O)NC(=O)CNC(=O)[C@H](CCC(=O)O)NC(=O)[C@H](CC(C)C)NC(=O)[C@H](Cc1ccc(O)cc1)NC(=O)[C@H](CO)NC(=O)[C@H](CO)NC(=O)[C@H](CCCCNC(=O)COCCOCCNC(=O)COCCOCCNC(=O)CC[C@H](NC(=O)CCCCCCCCCCCCCCC(=O)O)C(=O)O)NC(=O)[C@H](CC(=O)O)NC(=O)[C@H](CO)NC(=O)[C@@H](NC(=O)[C@](C)(Cc1ccccc1)NC(=O)[C@H](CO)NC(=O)CNC(=O)[C@H](CCC(=O)O)NC(=O)C(C)(C)NC(=O)[C@@H](N)Cc1c[nH]cn1)[C@@H](C)O)C(=O)N[C@@H](C)C(=O)N[C@@H](CCCCNC(=O)COCCOCCNC(=O)COCCOCCNC(=O)CC[C@H](NC(=O)CCCCCCCCCCCCCCC(=O)O)C(=O)O)C(=O)N[C@H](C(=O)N[C@H](C(=O)N[C@@H](CCC(=O)O)C(=O)NCC(=O)NCC(N)=O)C(C)C)C(C)C [compound 260] (H-H[Aib]EGS[αMeF]TSDK([AEEA-AEEA-γGlu-C16 diacid])SSYLEGEAA[αMeK]EFIAK([AEEA-AEEA-γGlu-C16 diacid])VVEGG-NH2; N-terminus assumed)	EC50 ([1]; bis-lipidated peptides, first replicate, read-out: Primary assay EC50 Gluc-R (n1)): ≥ 21.9 nM; EC50 ([2]; bis-lipidated peptides, mean of n1 and n2, read-out: Primary assay EC50 Mean pM GLP-1R): 388 pM; EC50 ([2]; bis-lipidated peptides, replicate n1, read-out: Primary assay EC50 GLP-1R n1): 334 pM; EC50 ([2]; bis-lipidated peptides, replicate n2, read-out: Primary assay EC50 GLP-1R n2): 443 pM; EC50 ([3]; bis-lipidated peptides, first replicate, read-out: Primary assay EC50 GIP-R (n1)): ≥ 21.9 nM
93.4 pM	28.8 pM	158 pM	–	–	–	–	–	–	–	CCCCCCCCCCCC(=O)N[C@@H](CCC(=O)NCCOCCOCC(=O)NCCOCCOCC(=O)NCCCC[C@H](NC(=O)[C@H](CCC(=O)O)NC(=O)[C@H](CCCCNC(=O)COCCOCCNC(=O)COCCOCCNC(=O)CC[C@H](NC(=O)CCCCCCCCCCC)C(=O)O)NC(=O)[C@H](Cc1ccc(O)cc1)NC(=O)[C@H](CO)NC(=O)[C@](C)(CO)NC(=O)[C@@H](NC(=O)[C@H](CC(=O)O)NC(=O)[C@H](CO)NC(=O)[C@@H](NC(=O)[C@](C)(Cc1ccccc1)NC(=O)[C@H](CO)NC(=O)CNC(=O)[C@H](CCC(=O)O)NC(=O)C(C)(C)NC(=O)[C@@H](N)Cc1c[nH]cn1)[C@@H](C)O)C(C)C)C(=O)N[C@@H](CCC(=O)O)C(=O)N[C@@H](C)C(=O)N[C@@H](C)C(=O)N[C@@](C)(CCCCN)C(=O)N[C@@H](CCC(=O)O)C(=O)N[C@@H](Cc1ccccc1)C(=O)N[C@H](C(=O)N[C@@H](CCCCNC(=O)COCCOCCNC(=O)COCCOCCNC(=O)CC[C@H](NC(=O)CCCCCCCCCCC)C(=O)O)C(=O)N[C@@H](Cc1ccccc1)C(=O)N[C@H](C(=O)N[C@H](C(=O)N[C@@H](CCC(=O)O)C(=O)NCC(=O)NCC(N)=O)C(C)C)C(C)C)[C@@H](C)CC)C(=O)O [compound 451] (H-H[Aib]EGS[αMeF]TSDV[αMeS]SYK([AEEA-AEEA-γGlu-Lauroyl])EK([AEEA-AEEA-γGlu-Lauroyl])EAA[αMeK]EFIK([AEEA-AEEA-γGlu-Lauroyl])FVVEGG-NH2; N-terminus assumed)	EC50 ([1]; tris-lipidated peptides, first replicate, read-out: Primary assay EC50 Gluc-R (n1)): 19.7 nM; EC50 ([3]; tris-lipidated peptides, first replicate, read-out: Primary assay EC50 GIP-R (n1)): 19.7 nM
–	–	–	≥ 28 nM	≥ 28 nM	260 pM	190 pM	224 pM	≥ 28 nM	≥ 28 nM	CCCCCCCCCCCCCCCC(=O)N[C@@H](CCC(=O)NCCCC[C@H](NC(=O)CNC(=O)[C@H](CCC(=O)O)NC(=O)C(C)(C)NC(=O)[C@@H](N)Cc1c[nH]cn1)C(=O)N[C@@](C)(Cc1ccccc1)C(=O)N[C@H](C(=O)N[C@@H](CO)C(=O)N[C@@H](CC(=O)O)C(=O)N[C@H](C(=O)N[C@@](C)(CO)C(=O)N[C@@H](CO)C(=O)N[C@@](C)(Cc1ccccc1)C(=O)N[C@@H](CC(C)C)C(=O)N[C@@H](CCC(=O)O)C(=O)NCC(=O)N[C@@H](CCC(=O)O)C(=O)N[C@@H](C)C(=O)N[C@@H](C)C(=O)N[C@@](C)(CCCCN)C(=O)N[C@@H](CCC(=O)O)C(=O)N[C@@](C)(Cc1ccccc1)C(=O)N[C@H](C(=O)N[C@@H](C)C(=O)N[C@@](C)(Cc1ccccc1)C(=O)N[C@H](C(=O)N[C@H](C(=O)N[C@@](C)(CCCCN)C(=O)NCC(=O)NCC(N)=O)C(C)C)C(C)C)[C@@H](C)CC)C(C)C)[C@@H](C)O)C(=O)O [compound 95] (H-H[Aib]EGK([γGlu-Palmitoyl])[αMeF]TSDV[αMeS]S[αMeF]LEGEAA[αMeK]E[αMeF]IA[αMeF]VV[αMeK]GG-NH2; N-terminus assumed)	–
176 pM	110 pM	241 pM	–	–	–	–	–	–	–	CCCCCCCCCCCC(=O)N[C@@H](CCC(=O)NCCOCCOCC(=O)NCCOCCOCC(=O)NCCCC[C@H](NC(=O)[C@H](CCC(=O)O)NC(=O)CNC(=O)[C@H](CCC(=O)O)NC(=O)[C@H](CC(C)C)NC(=O)[C@H](Cc1ccc(O)cc1)NC(=O)[C@H](CO)NC(=O)[C@H](CO)NC(=O)[C@H](CCCCNC(=O)COCCOCCNC(=O)COCCOCCNC(=O)CC[C@H](NC(=O)CCCCCCCCCCC)C(=O)O)NC(=O)[C@H](CC(=O)O)NC(=O)[C@H](CO)NC(=O)[C@@H](NC(=O)[C@](C)(Cc1ccccc1)NC(=O)[C@H](CO)NC(=O)CNC(=O)[C@H](CCC(=O)O)NC(=O)C(C)(C)NC(=O)[C@@H](N)Cc1c[nH]cn1)[C@@H](C)O)C(=O)N[C@@H](C)C(=O)N[C@@](C)(CCCCN)C(=O)N[C@@H](CCC(=O)O)C(=O)N[C@@H](Cc1ccccc1)C(=O)N[C@H](C(=O)N[C@@H](CCCCNC(=O)COCCOCCNC(=O)COCCOCCNC(=O)CC[C@H](NC(=O)CCCCCCCCCCC)C(=O)O)C(=O)N[C@@H](Cc1ccccc1)C(=O)N[C@H](C(=O)N[C@H](C(=O)N[C@@H](CCC(=O)O)C(=O)NCC(=O)NCC(N)=O)C(C)C)C(C)C)[C@@H](C)CC)C(=O)O [compound 441] (H-H[Aib]EGS[αMeF]TSDK([AEEA-AEEA-γGlu-Lauroyl])SSYLEGEK([AEEA-AEEA-γGlu-Lauroyl])A[αMeK]EFIK([AEEA-AEEA-γGlu-Lauroyl])FVVEGG-NH2)	EC50 ([1]; tris-lipidated peptides, second replicate, read-out: Primary assay EC50 Gluc-R (n2)): 19.5 nM; EC50 ([3]; tris-lipidated peptides, second replicate, read-out: Primary assay EC50 GIP-R (n2)): 19.5 nM
–	–	–	≥ 100 nM	22 nM	500 pM	590 pM	544 pM	≥ 100 nM	≥ 100 nM	CC[C@H](C)[C@H](NC(=O)[C@](C)(Cc1ccccc1)NC(=O)[C@H](CCC(=O)O)NC(=O)[C@](C)(CCCCN)NC(=O)[C@H](C)NC(=O)[C@H](C)NC(=O)[C@H](CCC(=O)O)NC(=O)CNC(=O)[C@H](CCC(=O)O)NC(=O)[C@H](CC(C)C)NC(=O)[C@](C)(Cc1ccccc1)NC(=O)[C@H](CO)NC(=O)[C@](C)(CO)NC(=O)[C@@H](NC(=O)[C@H](CC(=O)O)NC(=O)CNC(=O)[C@@H](NC(=O)[C@](C)(Cc1ccccc1)NC(=O)[C@H](CO)NC(=O)CNC(=O)[C@H](CCC(=O)O)NC(=O)C(C)(C)NC(=O)[C@@H](N)Cc1c[nH]cn1)[C@@H](C)O)C(C)C)C(=O)N[C@@H](C)C(=O)N[C@@](C)(Cc1ccccc1)C(=O)N[C@H](C(=O)N[C@H](C(=O)N[C@@](C)(CCCCN)C(=O)NCC(=O)NCC(N)=O)C(C)C)C(C)C [compound 25] (H-H[Aib]EGS[αMeF]TGDV[αMeS]S[αMeF]LEGEAA[αMeK]E[αMeF]IA[αMeF]VV[αMeK]GG-NH2)	–

Compound	EC50 [2, 4]	EC50 [2, 5]	EC50 [2, 6]	EC50 [1, 7]	EC50 [1, 8]	EC50 [2, 9]	EC50 [2, 10]	EC50 [2, 11]	EC50 [3, 12]	EC50 [3, 13]	other results
CC[C@H](C)[C@H](NC(=O)[C@](C)(Cc1ccccc1)NC(=O)[C@H](CCC(=O)O)NC(=O)[C@H](CCCCNC(=O)CC[C@H](NC(=O)CC[C@H](NC(=O)CC[C@H](NC(=O)CCCCCCCCCCCOc1ccc(C(=O)O)cc1)C(=O)O)C(=O)O)C(=O)O)NC(=O)[C@H](C)NC(=O)[C@H](C)NC(=O)[C@H](CCC(=O)O)NC(=O)CNC(=O)[C@H](CCC(=O)O)NC(=O)[C@H](CC(C)C)NC(=O)[C@](C)(Cc1ccccc1)NC(=O)[C@H](CO)NC(=O)[C@](C)(CO)NC(=O)[C@@H](NC(=O)[C@H](CC(=O)O)NC(=O)[C@H](CO)NC(=O)[C@@H](NC(=O)[C@](C)(Cc1ccccc1)NC(=O)[C@H](CO)NC(=O)CNC(=O)[C@H](CCC(=O)O)NC(=O)C(C)(C)NC(=O)[C@@H](N)Cc1c[nH]cn1)[C@@H](C)O)C(C)C)C(=O)N[C@@H](C)C(=O)N[C@@](C)(Cc1ccccc1)C(=O)N[C@H](C(=O)N[C@H](C(=O)N[C@@](C)(CCCCN)C(=O)NCC(=O)NCC(N)=O)C(C)C)C(C)C [compound 139]	–	–	–	–	–	29 pM	22 pM	25.5 pM	–	–	EC50 ([1]; Primary assay EC50 Gluc-R (n1), cAMP assay, first determination (n1)): ≥ 26 nM; EC50 ([1]; read-out: Primary assay EC50 Gluc-R (n2), cAMP assay, second determination (n2)): ≥ 26 nM; EC50 ([3]; Primary assay EC50 GIP-R (n1), cAMP assay, first determination (n1)): ≥ 26 nM; EC50 ([3]; read-out: Primary assay EC50 GIP-R (n2), cAMP assay, second determination (n2)): ≥ 26 nM
